Measured values taken from article PMC6792352, “Limited Chemical Structural Diversity Found to Modulate Thyroid Hormone Receptor in the Tox21 Chemical Library” (Environmental Health Perspectives, 2019).
Structures can show the parent of a compound that is named as a salt.

Test: in vitro
Conditions: rat, gh3-tre-luc cells

Structure (SMILES) | CC50 at 24 h (AC50 (uM) modified / 1000) | other results
C[C@@H](Cc1ccccc1)N(C)C [Dimetamfetamine] | – | CC50 at 24 h (AC50 (uM) modified / 1000, Tox21_110001=Tox21_111807, viability, 1 nM T3 present, 24 h): > 50 µM
CC(=O)NNC(C)=O [Diacetyl hydrazine] | > 90 µM | –
C[N+](C)(C)CCOC(N)=O [Carbachol] | > 50 µM | –
C1CS1 [Ethylene sulfide] | – | CC50 at 24 h (AC50 (uM) modified / 1000, Tox21_110001=Tox21_202917, viability, 1 nM T3 present, 24 h): > 90 µM
CCCCCCCCCCCCCCCCCC[N+](C)(C)CCC[Si](OC)(OC)OC [N,N-Dimethyl-N-(3-(trimethoxysilyl)propyl) octadecan-1-aminium chloride] | > 50 µM | –
NCCN1CCOCC1 [2-Morpholinoethylamine] | > 90 µM | –
CN1C(CSCC(F)(F)F)Nc2cc(Cl)c(S(N)(=O)=O)cc2S1(=O)=O (stereo not shown) [Polythiazide] | > 50 µM | –
COC(=O)[C@H]1[C@H]2C[C@@H]3c4[nH]c5cc(OC)ccc5c4CCN3C[C@H]2C[C@@H](OC(=O)COc2ccc(OC)cc2)[C@@H]1OC [Mefeserpine] | > 50 µM | –
CCN(CC)C(=O)N(CC)CC [Tetraethylurea] | > 90 µM | –
N#CSc1ccc(N)c([N+](=O)[O-])c1 [2-Nitro-4-thiocyanoaniline] | 51.1 µM | –
Cc1c(N=C=O)cccc1N=C=O [Toluene-2,6-diisocyanate] | > 90 µM | –
C=CC(=O)NCOCCCC [N-(Butoxymethyl)acrylamide] | > 100 µM | –
O=C1c2ccccc2CCc2ccccc21 [Dibenzosuberone] | > 90 µM | –
CCOc1cccc(-n2cc(C(=O)N3CCN(c4cc(C(=O)O)c5ccccc5c4)CC3)nc2-c2ccc(C)cc2)c1 [PharmaGSID_47337] | 77.9 µM | –
N#CC(C#N)=NNc1cccc(Cl)c1 [Carbonyl cyanide chlorophenylhydrazone] | 1.97 µM | –
CC1CCc2c(N3CCC(O)CC3)c(F)cc3c(=O)c(C(=O)O)cn1c23 (stereo not shown) [Nadifloxacin] | > 50 µM | –
CN(C)CCN1C(=O)c2ccccc2N(C)c2ccccc21 [Dibenzepin hydrochloride] | > 50 µM | –
CCC(C)c1cc(C(C)(C)C)c(O)c(C(C)(C)C)c1 (stereo not shown) [4-(Butan-2-yl)-2,6-di-tert-butylphenol] | > 90 µM | –

Structure (SMILES) | CC50 at 24 h (AC50 (uM) modified / 1000) | other results
CCCCCCCCOc1ccc(C(=O)O)cc1 [4-Octyloxybenzoic acid] | > 90 µM | –
C=C(C)C(=O)OCC1CCCO1 (stereo not shown) [Tetrahydrofurfuryl methacrylate] | > 90 µM | –
O=[N+]([O-])c1c2ccccc2cc2ccccc12 [9-Nitroanthracene] | > 90 µM | –
CC(C)(C)c1cc(O)c(C(C)(C)C)cc1O [2,5-Di-tert-butylbenzene-1,4-diol] | 37.2 µM | –
CCCCCCCCCCCCCCCCC(C(=O)O)C(O)(CC(=O)O)C(=O)O (stereo not shown) [Agaric acid] | 29.5 µM | –
COc1cc(C)nc(-n2nc(C)cc2OC)n1 [Epirizole] | > 20 µM | –
N#CCCN(CCO)CCO [3-[Bis(2-hydroxyethyl)amino]propanenitrile] | > 90 µM | –
CCOC(=O)[C@H](CCc1ccccc1)N[C@@H](C)C(=O)N1CC2(C[C@H]1C(=O)O)SCCS2 [Spirapril hydrochloride] | > 50 µM | –
Cc1ccc(C(=O)O)cc1 [4-Methylbenzoic acid] | > 90 µM | –
CCCCCl [1-Chlorobutane] | – | CC50 at 24 h (AC50 (uM) modified / 1000, Tox21_110001=Tox21_111072, viability, 1 nM T3 present, 24 h): > 50 µM; CC50 at 24 h (AC50 (uM) modified / 1000, Tox21_110001=Tox21_200865, viability, 1 nM T3 present, 24 h): > 90 µM
CC(=O)NNc1ccccc1 [1-Acetyl-2-phenylhydrazine] | – | CC50 at 24 h (AC50 (uM) modified / 1000, Tox21_110001=Tox21_200069, viability, 1 nM T3 present, 24 h): 7.15 µM
CCNc1nc(Cl)nc(NC(C)(C)C)n1 [Terbutylazine] | > 90 µM | –
CCOC(=O)OC(C)OC1=C(C(=O)Nc2ccccn2)N(C)S(=O)(=O)c2ccccc21 (stereo not shown) [Ampiroxicam] | > 50 µM | –
C=C(C)C(=O)OCCC(F)(F)C(F)(F)C(F)(F)C(F)(F)C(F)(F)C(F)(F)F [6:2 Fluorotelomer methacrylate] | > 90 µM | –
CCO/C=C1\N=C(c2ccccc2)OC1=O [Oxazolone] | 64.5 µM | –
CC(=O)/C=C/c1ccc2c(c1)OCO2 [Piperonal acetone] | – | CC50 at 24 h (AC50 (uM) modified / 1000, Tox21_110001=Tox21_202464, viability, 1 nM T3 present, 24 h): 57.5 µM
CCCCOC(=O)C(=O)Nc1cccc(-c2nnn[nH]2)c1 [Tazanolast] | > 50 µM | –
COC(CC(C)CCCC(C)(C)O)OC (stereo not shown) [Hydroxycitronellal dimethyl acetal] | > 90 µM | –
